Assay [1] addresses T1, PCSK9/LDLR interaction (His-tagged PCSK9, recombinant LDLR-AB domain) (Homo sapiens, UniProt Q8NBP7).
T1 construct: purchased Circulex
In words: PCSK9/LDLR binding in vitro ELISA (Circulex kit). The method, then:
For screening inhibitors of the PCSK9/LDLR interaction, different concentrations (0.01 nM-100 μM) of selected compounds were incubated with His-tagged PCSK9 and then added to wells that were pre-coated with recombinant LDLR-AB domain. After incubation, the plate was washed and the amount of recombinant His-tagged PCSK9 was measured using the biotinylated anti-His-tag and horseradish peroxidase conjugated Streptavidin, and quantitated using a BioTek Synergy 2 plate reader. The effect of each compound on the PCSK9 binding to the recombinant LDLR-AB domain was calculated.
Testing of compounds acquired from commercial sources was performed in our binding assay for their potential to inhibit the PCSK9/LDLR interaction. Initial screening was done using 100 μM of the compounds. Each compound was added to the binding reaction mixture in triplicate and assayed as described above. From the screening, a number of compounds were identified to have an effect on LDLR upregulation as compared to control (see Example 3 vide infra) while having no effect on PCSK9 processing and secretion (see Example 2 vide infra). Exemplary 2-carboxyanilide indoles and 2-carboxanilide pyrroles of the formula I that had >20% inhibition at 100 uM are shown in FIG. 1. Fifty five (55) structurally related 2-carboxyanlide benzofurans (compounds of the formulas II-IV) were also acquired. Compounds that inhibited the PCSK9/LDLR interaction were selected and analyzed using different compound concentrations ranging from 100 μM to 0.01 nM. […] (FIG. 4). Based on this preliminary SAR, an additional 34 compounds were designed and synthesized around SBC-115,337, and the compounds were tested in our binding assay as described in FIG. 4. From the screening, a number of benzofuran compounds were determined to have IC50's>10 uM but less </=50 uM (FIG. 2).
(In general: ELISA stands for enzyme-linked immunosorbent assay.)

Assay [2] concerns PCSK9 synthesis, processing and secretion. In words: Test for secreted PCSK9 (western blot) in transfected HEK-293T cells. Conditions: 25 μM, 43 hours; cells and media. The assay is classed as cell-based. The protocol: HEK-293T cells were seeded into 96 well plates in a DMEM containing 10% Fetal Bovine Serum media and incubated overnight at 37° C. Cells were transiently transfected with cDNA construct using the Lipofectamine-LTX. Compounds (25 μM) or vehicle were added, followed by additional 43 hours of incubation. Cellular PCSK9, secreted PCSK9, and cell viability were analyzed as described in Example 2 below.
The SBC compounds were validated for their ability to affect PCSK9 synthesis, processing and secretion as described in relation to FIG. 5.
The increase in the level of recombinant LDLR in the presence of PCSK9 by the above compounds could be either due to inhibiting the binding of PCSK9 to the LDLR or by inhibiting the processing and secretion of PCSK9. To eliminate the possibility these compounds interfere with PCSK9 synthesis, processing or secretion, we tested the effect of these compounds on the processing and secretion of PCSK9 as described above. HEK-293T cells were seeded into 96-well plates in a DMEM containing 10% Fetal Bovine Serum media and incubated overnight at 37° C. Cells were transiently transfected with cDNA construct using the Lipofectamine-LTX. Compounds (25 μM) or vehicle were added, followed by additional 43 hours of incubation. Cellular PCSK9, secreted PCSK9, and cell viability were analyzed for PCSK9 secretion using western blot analysis, imaged and quantitated using a LAS-4000 (GE).

Another assay deals with LDLR. In words: Recombinant LDLR upregulation in HEK-293 cells transfected with LDLR/PCSK9. The assay is classed as cell-based, human. The conditions noted are these: recombinant LDLR upregulation assay. The method, then:
HEK-293T cells were seeded in a DMEM containing 10% Fetal Bovine Serum media and incubated overnight at 37° C. Cells were transiently transfected with LDLR & PCSK9 cDNA constructs using the Lipofectamine-LTX as described above. After 24 hrs, cells were treated with different compounds and incubated for an additional 48 hrs. Cells were assayed as described above for LDLR expression.
HEK-293T cells were assayed as described in relation to FIG. 7.
We have constructed the expression vector of human LDLR under the control of the cytomegalovirus promoter-enhancer (pCMV-LDLR). In addition, a construct containing the PCSK9 (pCMV-PCSK9-FLAG) was described above. These constructs were used to transiently transfect mammalian cells, and both cell lysate and supernatant were subjected to SDS-PAGE and immunoblot analysis using an anti-PCSK9 or LDLR antibody. […] Addition of inhibitors of PCSK9 processing to the latter cells should result in decreased degradation of the LDLR and the appearance of the 160K Dalton band on the gel. Using this assay, we tested our compounds for their ability to reduce the degradation of the LDLR. HEK-293 cells were used in this assay. They were grown in 96-well plates overnight, and transfected with LDLR/PCSK9. Compounds dissolved in DMSO or vehicle were added to the culture media, and incubated for 24-48 hours; cells were lysed. Cell lysates were subjected to quantitation using the above immunoassay.

The next assay concerns plasma LDL-C. In words: Efficacy in mice fed high fat diet (plasma LDL-C). The assay is classed as in vivo, C57BL/6 mice. The method, then: C57/Black 6 mice and BalB/C mice were maintained on the HFD for 4 weeks. Blood plasma was collected at day 1 prior to injection of the SBC compounds. Blood plasma was collected at day 4, at 4 hours after the LPS injection, and again at 24 hours after LPS injection. Plasma cholesterol, LDL-C, HDL-C, and triglyceride levels were measured enzymatically.
Blood plasma was collected at day 1 prior to injection of the compounds. Blood plasma was collected again at day 5. Plasma LDL-C levels was measured enzymatically. (FIG. 15A) Representing the actual change in the LDL-C in mg/dL and (FIG. 15B) representing the % reduction of LDL-C after the administration of SBC-115,418 for 5 days.
SBC-115,337 was tested for efficacy in male mice (C57BL/6 mice). Mice were housed as four animals per cage under climate-controlled conditions of temperature (20-24° C.), humidity (60-70%), and alternating 12 h light/dark cycles. […]
Blood samples (75 μl) were collected 4 days after drug administration from the retro-orbital venous plexus via heparinized capillary tubes containing 2 USP units of ammonium heparin per tube (Carolina, Burlington, N.C.). […] Plasma cholesterol, LDL-C, HDL-C, and triglyceride levels were measured enzymatically.
Similarly, SBC-115,418 was tested in mice as described above. […] Plasma LDL-C levels were measured enzymatically. […]

For the next assay, the system named is HepG2 cells. In words: Uptake of fluorescent Dil-LDL in HepG2 cells transfected with PCSK9. The assay is classed as cell-based. The conditions noted are these: 1.2 uM compound. The method, then: The SBC compounds were validated for their ability to increase uptake of Fluorescent Dil-LDL in HepG2 cells.
The SBC compounds were validated for their ability to increase uptake of Fluorescent Dil-LDL in HepG2 cells as described in FIG. 9.
In order to confirm that these PCSK9 antagonists upregulate functional LDLR, we tested the ability of these compounds to enhance the uptake of fluorescent Dil-LDL in HepG2 cells. Briefly, HepG2 cells transfected with PCSK9 (FIG. 4) were plated and allowed to grow overnight. Compounds were added to the cells followed by the addition of fluorescent Dil-LDL. Cells were washed extensively, and the fluorescent Dil-LDL taken up by the cells were measured using the Synergy 2 plate reader (FIG. 9 and FIG. 12). […] These compounds were selected for further analysis in the in vivo studies.

[3] abbreviates: Table 1 / FIG. 11, SAR around SBC-115,337, read-out: IC-50.
[4] abbreviates: bounds stated for compounds of FIG. 2 and FIG. 3, read-out: in vitro inhibition of the PCSK9/LDLR interaction (IC50).
Where [5] appears, read: compound concentrations 100 μM to 0.01 nM, FIG. 4, read-out: IC50, inhibition of the PCSK9/LDLR interaction.

Like-named read-outs stand apart in the source and are kept apart here.

T1 sequence (Q8NBP7 153-692): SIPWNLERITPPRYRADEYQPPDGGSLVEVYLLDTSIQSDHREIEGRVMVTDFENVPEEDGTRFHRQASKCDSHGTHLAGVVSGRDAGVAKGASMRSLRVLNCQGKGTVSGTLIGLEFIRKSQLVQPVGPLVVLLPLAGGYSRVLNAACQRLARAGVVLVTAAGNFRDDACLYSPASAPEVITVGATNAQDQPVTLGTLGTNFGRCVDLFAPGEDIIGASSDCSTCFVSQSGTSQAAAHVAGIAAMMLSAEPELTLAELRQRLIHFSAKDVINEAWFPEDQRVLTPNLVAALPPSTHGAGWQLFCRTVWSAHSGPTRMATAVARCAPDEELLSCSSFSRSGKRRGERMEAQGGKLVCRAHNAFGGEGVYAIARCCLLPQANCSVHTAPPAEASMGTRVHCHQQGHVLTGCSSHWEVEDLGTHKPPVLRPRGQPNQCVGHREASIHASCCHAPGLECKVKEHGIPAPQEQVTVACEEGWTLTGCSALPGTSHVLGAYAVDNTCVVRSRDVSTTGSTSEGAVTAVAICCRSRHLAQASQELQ
T1 sequence (Q8NBP7 31-152 partner limits assumed): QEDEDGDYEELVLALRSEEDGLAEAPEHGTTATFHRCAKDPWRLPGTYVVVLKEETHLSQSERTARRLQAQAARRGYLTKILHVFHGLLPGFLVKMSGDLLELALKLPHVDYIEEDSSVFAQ

On to `COc1ccc2oc(C(=O)Nc3ccc(C(=O)Nc4ccc(-c5nc6ccccc6o5)cc4)cc3)c(C)c2c1` [SBC-115,418], for which the IC50 in assay [1] (setting [3]) is 1.6 µM; in assay [1] (setting [4]), less than 10 µM. For the same compound, in assay [2], the “effect on PCSK9 synthesis, processing and secretion” value (shortened to “effect on PCSK9 synthesis”) is “not due to its effect on synthesis and secretion of PCSK9”. In addition, the “level of LDLR as compared to control (DMSO-treated cells)” value (“level of LDLR as compared to control” below) in the assay on LDLR was “significant increase in the level of LDLR”. Further, in the assay with plasma LDL-C (10 mg/kg oral daily for 5 days, FIG. 15A-15B), the “reduction in LDL-C levels relative to high fat diet animal levels” value is listed as 20-25%. In the assay with HepG2 cells, the “fluorescent Dil-LDL uptake” value is “significant increases in the Dil-LDL uptake”.

In the case of `CN1C(=O)c2ccc(NC(=O)c3cc4ccccc4o3)cc2C1=O` [SBC-115,341], the IC50 in assay [1] (setting [4]) is less than 10 µM.

Regarding `O=C(Nc1ccc(-c2ncco2)cc1)c1ccc(NC(=O)c2cc3ccccc3o2)cc1` [SBC-115,433], the IC50 in assay [1] (setting [3]) was 2.4 µM; in assay [1] (setting [4]) it was less than 10 µM. Also, the “effect on PCSK9 synthesis” value in assay [2] was “not due to its effect on synthesis and secretion of PCSK9”. Further, the “level of LDLR as compared to control” value in the assay with LDLR is recorded as “significant increase in the level of LDLR”. The “fluorescent Dil-LDL uptake” value with HepG2 cells is listed as “significant increases in the Dil-LDL uptake”.

As to `COc1cccc2cc(C(=O)Nc3ccc4c(c3)C(=O)N(C)C4=O)oc12` [SBC-115,202], the figures for the IC50 in assay [1] (setting [4]) and in assay [1] (setting [5]) were less than 10 µM and 9.5 µM, respectively. Also, the “fluorescent Dil-LDL uptake” value with HepG2 cells is recorded as “increase in fluorescently labeled LDL uptake”.

Consider `O=C(Nc1ccc(-c2nc3ccccc3o2)cc1)c1ccc(NC(=O)c2cc3ccccc3o2)cc1` [SBC-115,337], for which the values for the IC50 in assay [1] (setting [3]), in assay [1] (setting [4]) and in assay [1] (setting [5]) were 0.6 µM, less than 10 µM and 0.5 µM, respectively. The “reduction in LDL-C levels relative to high fat diet animal levels” value with plasma LDL-C (3 mg/kg subcutaneously daily for 4 days, with or without LPS (5 mg/Kg), FIG. 10) is given as 20-25%. For the same compound, the “fluorescent Dil-LDL uptake” value in the assay on HepG2 cells is “increase in fluorescently labeled LDL uptake”.

Take `COc1ccc2oc(C(=O)Nc3ccc(C(N)=O)cc3)c(C)c2c1` [SBC-115,270]: the IC50 was less than 10 µM in assay [1] (setting [4]) and 7 µM in assay [1] (setting [5]). Moreover, the “fluorescent Dil-LDL uptake” value with HepG2 cells is reported as “increase in fluorescently labeled LDL uptake”.

Regarding `O=C(Nc1ccc(C2=NCCO2)cc1)c1ccc(NC(=O)c2cc3ccccc3o2)cc1` [SBC-115,432], the IC50 is 1.1 µM in assay [1] (setting [3]) and less than 10 µM in assay [1] (setting [4]). In assay [2], the “effect on PCSK9 synthesis” value was “not due to its effect on synthesis and secretion of PCSK9”. For the same compound, the “level of LDLR as compared to control” value in the assay with LDLR is recorded as “significant increase in the level of LDLR”. For the same compound, the “fluorescent Dil-LDL uptake” value with HepG2 cells is given as “significant increases in the Dil-LDL uptake”.

As to `NC(=O)c1ccc(NC(=O)c2ccc(NC(=O)c3cc4ccccc4o3)cc2)cc1` [SBC-115,424], the values for the IC50 in assay [1] (setting [3]) and in assay [1] (setting [4]) were 1.7 µM and less than 10 µM, respectively. Moreover, the “effect on PCSK9 synthesis” value in assay [2] was “not due to its effect on synthesis and secretion of PCSK9”. Further, in the assay on LDLR, the “level of LDLR as compared to control” value is on record as “significant increase in the level of LDLR”. Also, the “fluorescent Dil-LDL uptake” value in the assay on HepG2 cells is given as “significant increases in the Dil-LDL uptake”.

Consider `COc1cccc2c(C)c(C(=O)Nc3ccc(C(=O)Nc4ccc(-c5ncco5)cc4)cc3)oc12` [SBC-115,445], for which the IC50 in assay [1] (setting [3]) is 2.2 µM; in assay [1] (setting [4]), less than 10 µM.

Consider `CN(C(=O)c1ccc(NC(=O)c2cc3ccccc3o2)cc1)c1ccc(-c2nc3ccccc3o2)cc1` [SBC-115,423], for which the values for the IC50 in assay [1] (setting [3]) and in assay [1] (setting [4]) were 8.2 µM and less than 10 µM, respectively.

These data come from US10947220B2, “Anti-proprotein convertase subtilisin kexin type 9 (anti-PCSK9) compounds and methods of using the same in the treatment and/or prevention of cardiovascular diseases” (Shifa Biomedical Corporation, priority 2016, dated 2021).
